Data: US9777005B2 (Takeda Pharmaceutical Company Limited, priority 2012, dated 2017)
Where a name gives a salt, the structure may show the parent alone.

Target: T1, human M1 receptor (hCHRM1) (Homo sapiens, UniProt P11229)
T1 construct: expressed in transfected cells; host or cells: CHO-K1
T1 sequence (P11229 1-460): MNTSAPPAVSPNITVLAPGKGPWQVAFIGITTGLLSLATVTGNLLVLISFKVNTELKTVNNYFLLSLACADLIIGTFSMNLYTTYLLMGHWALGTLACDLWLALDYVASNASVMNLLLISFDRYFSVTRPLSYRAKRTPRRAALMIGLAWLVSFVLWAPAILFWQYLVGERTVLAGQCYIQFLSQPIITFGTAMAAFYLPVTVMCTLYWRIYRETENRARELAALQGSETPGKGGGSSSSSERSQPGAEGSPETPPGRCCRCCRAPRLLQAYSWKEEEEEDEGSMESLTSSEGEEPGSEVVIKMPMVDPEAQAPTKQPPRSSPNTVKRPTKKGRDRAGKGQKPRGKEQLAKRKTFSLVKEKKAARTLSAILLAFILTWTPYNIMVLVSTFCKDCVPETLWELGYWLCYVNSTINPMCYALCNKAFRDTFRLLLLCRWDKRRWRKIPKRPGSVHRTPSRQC
Assay: Measurement of M1 receptor positive allosteric modulator (M1PAM) activity, calcium fluorescence (FLIPRtetra) in CHO-K1 cells in the presence of acetylcholine at EC20
Assay type: cell-based
Conditions: in the presence of acetylcholine at EC20 (final 0.6 nM), CHO-K1 cells expressing hCHRM1; for EC50: inflection point of M1PAM activity, read-out: IP value; for activity (%) at 10 μM: test compound 10 μM
Procedure, shortened: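 CHO-K1 cells expressing human M1 were loaded with Fluo-4 AM, and compound was added with acetylcholine at EC20 (final 0.6 nM). Calcium fluorescence was read on FLIPRtetra for 1 min. Activity was normalized to 1 μM acetylcholine (100%) and DMSO (0%), and the curve inflection point was reported as IP.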

EC50 [nM] | activity (%) at 10 μM [%] | activity (%) at 10 μM (hydrochloride) [%] | SMILES
61 | 102 | – | C=C(C)c1ccc(Oc2nccc3c2C(=O)N(Cc2ccc(-c4cnnc(C)c4)cc2)C3)c(F)c1 [Example 411, 4-(2-fluoro-4-(prop-1-en-2-yl)phenoxy)-2-(4-(6-methylpyridazin-4-yl)benzyl)-1,2-dihydro-3H-pyrrolo[3,4-c]pyridin-3-one]
72 | 109 | – | Cn1cc(-c2ccc(CN3Cc4cccc(Oc5c(F)cccc5C#N)c4C3=O)c(Cl)c2)cn1 [Example 68, 2-((2-(2-chloro-4-(1-methyl-1H-pyrazol-4-yl)benzyl)-3-oxo-2,3-dihydro-1H-isoindol-4-yl)oxy)-3-fluorobenzonitrile]
20 | 102 | – | Cn1cc(-c2ccc(CN3Cc4cccc(OCC5CCCO5)c4C3=O)cc2)cn1 (stereo not drawn) [Example 5, 2-(4-(1-methyl-1H-pyrazol-4-yl)benzyl)-7-((tetrahydrofuran-2-yl)methoxy)isoindolin-1-one]
33 | 99 | – | Cn1cc(-c2ccc(CN3Cc4cccc(OCCN5CCCC5)c4C3=O)cc2)cn1 [Example 8, 2-(4-(1-methyl-1H-pyrazol-4-yl)benzyl)-7-(2-(pyrrolidin-1-yl)ethoxy)isoindolin-1-one]
45 | 103 | – | Cc1cc(-c2ccc(CN3Cc4ccnc(Oc5ccc(C#N)cc5F)c4C3=O)cc2)on1 [Example 373, 3-fluoro-4-((2-(4-(3-methyl-1,2-oxazol-5-yl)benzyl)-3-oxo-2,3-dihydro-1H-pyrrolo[3,4-c]pyridin-4-yl)oxy)benzonitrile]
190 | 103 | – | Cc1n[nH]c(C)c1Oc1cccc2c1C(=O)N(Cc1ccc(-c3cnn(C)c3)cc1)C2 [Example 22, 7-((3,5-dimethyl-1H-pyrazol-4-yl)oxy)-2-(4-(1-methyl-1H-pyrazol-4-yl)benzyl)isoindolin-1-one]
36 | 57 | – | Cn1cc(-c2ccc(CN3Cc4cccc(Oc5c(F)cccc5Cl)c4C3=O)cc2)cn1 [Example 12, 7-(2-chloro-6-fluorophenoxy)-2-(4-(1-methyl-1H-pyrazol-4-yl)benzyl)isoindolin-1-one]

More lines, now with the values behind:

SMILES | EC50 [nM] | activity (%) at 10 μM [%] | activity (%) at 10 μM (hydrochloride) [%]
O=C1c2c(OCC3CCCO3)ccnc2CN1Cc1ccc(-n2cccn2)cc1 (stereo not drawn) [Example 60, 6-(4-(1H-pyrazol-1-yl)benzyl)-4-((tetrahydrofuran-2-yl)methoxy)-6,7-dihydro-5H-pyrrolo[3,4-b]pyridin-5-one] | 320 | 115 | –
Cn1ccc(-c2ccc(CN3Cc4ccnc(Oc5ccc(C(F)(F)F)cc5F)c4C3=O)cc2)n1 [Example 305, 4-(2-fluoro-4-(trifluoromethyl)phenoxy)-2-(4-(1-methyl-1H-pyrazol-3-yl)benzyl)-1,2-dihydro-3H-pyrrolo[3,4-c]pyridin-3-one] | 25 | 94 | –
Cc1cc(-c2ccc(CN3Cc4ccnc(OCC5CC5)c4C3=O)cc2)ccn1 [Example 339, 4-(cyclopropylmethoxy)-2-(4-(2-methylpyridin-4-yl)benzyl)-1,2-dihydro-3H-pyrrolo[3,4-c]pyridin-3-one] | 70 | 106 | –
Cc1cc(-c2ccc(CN3Cc4ccnc(O[C@@H]5CCC[C@H]5O)c4C3=O)cc2)ccn1 (single isomer, unassigned) [Example 259, 4-((trans-2-hydroxycyclopentyl)oxy)-2-(4-(2-methylpyridin-4-yl)benzyl)-1,2-dihydro-3H-pyrrolo[3,4-c]pyridin-3-one hydrochloride] | 85 | – | 109
Cn1cc(-c2ccc(CN3Cc4ccnc(OCCC5CC5)c4C3=O)c(F)c2)nn1 [Example 260, 4-(2-cyclopropylethoxy)-2-(2-fluoro-4-(1-methyl-1H-1,2,3-triazol-4-yl)benzyl)-1,2-dihydro-3H-pyrrolo[3,4-c]pyridin-3-one] | 45 | 109 | –
